Data: ChEMBL document CHEMBL4699626, “Potential α-glucosidase inhibitor from Hylotelephium erythrostictum” (Bioorg Med Chem Lett, 2020)
Active and inactive are the calls of the source. No cut-off for these calls is given here.

Columns and labels:
[1] = Inhibition of alpha-glucosidase (unknown origin) using p-nitrophenyl-alpha-D-glucopyranoside as substrate
[2] = Inhibition of alpha-glucosidase (unknown origin); set-up: species or system Homo sapiens
Homo sapiens [3] = organism: Homo sapiens; experiment: Competitive inhibition of alpha-glucosidase (unknown origin) assessed as increase in Km with constant Vmax by Lineweaver-Burk plot analysis
Homo sapiens [4] = organism: Homo sapiens; experiment: Potency index, ratio of Acarbose IC50 to test compound IC50 for alpha-glucosidase (unknown origin)
[5] = Competitive inhibition of alpha-glucosidase (unknown origin) by Dixon plot analysis; set-up: species or system Homo sapiens
[6] = Inhibition of Saccharomyces cerevisiae alpha-glucosidase assessed as decrease in release of p-nitrophenol using pNPG as substrate preincubated for 2 hrs followed by substrate addition by spectrophotometric method

COc1cc(OC)c2c(c1)OC(OC)(c1ccc(OC)c(OC)c1)C2=O (centres undefined)
IC50 [1]: Not Active

COc1ccc(-c2oc3cc(O)cc(O)c3c(=O)c2O)cc1 [KAEMPFERIDE]
IC50 [2]: 647 µM

COc1cc(O)c2c(=O)c(O)c(-c3ccc(O)cc3)oc2c1 [RHAMNOCITRIN]
IC50 ([1]; read-out: IC50): 731 µM

COC1(c2ccc(O)c(O)c2)Oc2cc(O)cc(O)c2C1=O (centres undefined)
inhibition (Homo sapiens [3]): Active | IC50 ([1]; read-out: IC50): 1.8 µM | Ratio IC50 (Homo sapiens [4]): 457 | Ki [5]: 0.709 µM

O=c1cc(-c2ccc(O)cc2)oc2cc(O)cc(O)c12 [APIGENIN]
IC50 [6]: 365 µM

O=c1c(O)c(-c2ccc(O)cc2)oc2cc(O)cc(O)c12 [KAEMPFEROL]
IC50 ([1]; read-out: IC50): 420 µM
